Results: patent US9957273B2, “5-substituted 7- [4-(2-pyridyl)phenylmethylamino] -3-isopropylpyrazolo4,3-D]pyrimidine derivatives, use thereof as medicaments, and pharmaceutical compositions” (USTAV EXPERIMENTALNI BOTANIKY AV CR, V.V.I., priority 2015, dated 2018)
Like-named read-outs stand apart in the source and are kept apart here.

Columns and labels:
[1] = test system: MV4;11 (acute myelocytic leukemia); test: MTT cytotoxicity assay, leukemic cell line MV4;11; assay type: cell-based; details: three days
From the text: (§1) Cytotoxicity of the compounds is the major property determining their antileukemic efficacy in vivo. One of the parameters used, as the basis for cytotoxicity assays, is the metabolic activity of viable cells. For example, a microtiter assay, which uses (3-(4,5-dimethylthiazol-2-yl)-2,5-diphenyltetrazolium bromide (MTT), is widely used to quantitate cell proliferation and cytotoxicity. This assay is widely used in drug screening programs and in chemosensitivity testing. Because only metabolically active living cells reduce MTT to correspond purple formazan dye, these assays detect viable cells exclusively. The quantity of reduced MTT corresponds to the number of vital cells in the culture.
(§2) The compounds were assayed using the following leukemic cell lines: K562 (human chronic myelogenous leukaemia), HL60 (human promyelocytic leukaemia), CEM (human lymphoblastoid leukaemia), THP1 (human monocytic cell line), MV4; 11 (acute myelocytic leukemia). All cell lines were grown in RPMI medium supplemented with fetal bovine serum and L-glutamine and maintained at 37° C. in a humidified atmosphere with 5% CO2. For cytotoxicity assays, 2000-5000 cells were seeded into each well of 96 well plate, allowed to stabilize for at least 8 h and then tested compounds were added at various concentrations ranging from 100 to 0.01 μM in triplicates. After three days, MTT solution (5 mg/ml; Sigma, St. Louis, USA) was added to cells and medium was replaced with DMSO after five hours. The absorbance was measured at 620 nm by employing a microplate reader. MTT assays were repeated 3 times for each drug application and untreated cells were used as reference.

[2] = test system: THP1 (human monocytic cell line); test: MTT cytotoxicity assay, leukemic cell line THP1; assay type: cell-based; details: three days
From the text: as §1, §2

[3] = test system: CEM (human lymphoblastoid leukaemia); test: MTT cytotoxicity assay, leukemic cell line CEM; assay type: cell-based; details: three days
From the text: as §1, §2

[4] = test system: K562 (human chronic myelogenous leukaemia); test: MTT cytotoxicity assay, leukemic cell line K562; assay type: cell-based; details: three days
From the text: as §1, §2

CDK5/p35 = target: T1, CDK5/p35 (Homo sapiens, UniProt Q00535); test: CDK5/p35 kinase inhibition (33P-ATP, histone H1); assay type: biochemical; details: 0.15 μM ATP
T1 construct: purchased ProQinase GmbH
Description: CDK2/Cyclin E kinase was produced in Sf9 insect cells via baculoviral infection and purified on a NiNTA column (Qiagen). […] CDK5/p35 was purchased from ProQinase GmbH.
(§3) The reactions were stopped by adding 5 μL of 3% aq H3PO4. Aliquots were spotted onto P-81 phosphocellulose (Whatman), washed 3× with 0.5% aq H3PO4 and finally air-dried.

[5] = test system: HL60 (human promyelocytic leukaemia); test: MTT cytotoxicity assay, leukemic cell line HL60; assay type: cell-based; details: three days
From the text: as §1, §2

CDK2/Cyclin E = target: T2, CDK2/Cyclin E (Homo sapiens, UniProt P24941); test: CDK2/Cyclin E kinase inhibition (33P-ATP, histone H1); assay type: biochemical; details: 15 μM ATP
T2 construct: made in house; host or cells: Sf9 insect cells (baculovirus)
Description: CDK2/Cyclin E kinase was produced in Sf9 insect cells via baculoviral infection and purified on a NiNTA column (Qiagen). The kinase reactions were assayed with 1 mg/mL histone H1 in the presence of 15 μM ATP, 0.05 μCi [γ-^33P]ATP and of the test compound in a final volume of 10 μL, all in a reaction buffer (60 mM HEPES-NaOH, pH 7.5, 3 mM MgCl2, 3 mM MnCl2, 3 μM Na-orthovanadate, 1.2 mM DTT, 2.5 μg/50 μl PEG20.000). CDK5/p35 was purchased from ProQinase GmbH. The kinase reactions were assayed with 1 mg/mL histone H1 in the presence of 0.15 μM ATP, 0.05 μCi [γ-^33P]ATP and of the test compound in a final volume of 10 μL, all in a reaction buffer (60 mM HEPES-NaOH, pH 7.5, 3 mM MgCl2, 3 mM MnCl2, 3 μM Na-orthovanadate, 1.2 mM DTT, 2.5 μg/50 μl PEG20.000).
as §3

[6] = test system: PANC-1 (pancreatic carcinoma); test: MTT cytotoxicity assay, solid cancer cell line PANC-1; assay type: cell-based; details: Homo sapiens, PANC-1, 72 h, three days
Description: as §2, with “following” for “following leukemic”, “G361 (malignant melanoma), MCF7 (breast adenocarcinoma), PLC/PRF/5 (liver hepatoma), PANC-1 (pancreatic carcinoma) and HCT116 (colon carcinoma).” for “K562 (human chronic myelogenous leukaemia), HL60 (human promyelocytic leukaemia), CEM (human lymphoblastoid leukaemia), THP1 (human monocytic cell line), MV4; 11 (acute myelocytic leukemia).”, “DMEM” for “RPMI”, “4000-10000” for “2000-5000”, “of a” for “of”, “16” for “8”

HCT116 (colon carcinoma) = test: MTT cytotoxicity assay, solid cancer cell line HCT116; assay type: cell-based; details: Homo sapiens, HCT-116, 72 h, three days
Description: as §2, with “following” for “following leukemic”, “G361 (malignant melanoma), MCF7 (breast adenocarcinoma), PLC/PRF/5 (liver hepatoma), PANC-1 (pancreatic carcinoma) and HCT116 (colon carcinoma).” for “K562 (human chronic myelogenous leukaemia), HL60 (human promyelocytic leukaemia), CEM (human lymphoblastoid leukaemia), THP1 (human monocytic cell line), MV4; 11 (acute myelocytic leukemia).”, “DMEM” for “RPMI”, “4000-10000” for “2000-5000”, “of a” for “of”, “16” for “8”

[7] = test system: G361 (malignant melanoma); test: MTT cytotoxicity assay, solid cancer cell line G361; assay type: cell-based; details: Homo sapiens, G-361, 72 h, three days
Description: as §2, with “following” for “following leukemic”, “G361 (malignant melanoma), MCF7 (breast adenocarcinoma), PLC/PRF/5 (liver hepatoma), PANC-1 (pancreatic carcinoma) and HCT116 (colon carcinoma).” for “K562 (human chronic myelogenous leukaemia), HL60 (human promyelocytic leukaemia), CEM (human lymphoblastoid leukaemia), THP1 (human monocytic cell line), MV4; 11 (acute myelocytic leukemia).”, “DMEM” for “RPMI”, “4000-10000” for “2000-5000”, “of a” for “of”, “16” for “8”

[8] = test system: HUVECs (human umbilical vein endothelial cells); test: HUVEC proliferation assay (crystal violet); assay type: cell-based; details: 72 h, read-out: Inhibition of proliferation (EC50)
Description: To verify that novel compounds have anti-vascularisation properties, we analyzed their influence on the proliferation and migration of HUVECs. HUVECs (human umbilical vein endothelial cells) were purchased from Promocell (Heidelberg, Germany) and cultured in endothelial cell growth medium (ECGM, Promocell, Heidelberg, Germany) containing 10% FCS (Biochrom, Berlin, Germany). Experiments were performed using cells at passage 3.
For proliferation assay, 1.5×10^3 HUVECs were cultured for 24 h. Afterwards, cells were either left untreated or treated with novel compounds for 72 h. Proliferation assay was performed using crystal violet as described previously (Koltermann et al. 2007, Cell Mol. Life Sci. 64:1715-1722).

[9] = test system: PLC/PRF/5 (liver hepatoma); test: MTT cytotoxicity assay, solid cancer cell line PLC/PRF/5; assay type: cell-based; details: Homo sapiens, PLC-PRF-5, 72 h, three days
Description: as §2, with “following” for “following leukemic”, “G361 (malignant melanoma), MCF7 (breast adenocarcinoma), PLC/PRF/5 (liver hepatoma), PANC-1 (pancreatic carcinoma) and HCT116 (colon carcinoma).” for “K562 (human chronic myelogenous leukaemia), HL60 (human promyelocytic leukaemia), CEM (human lymphoblastoid leukaemia), THP1 (human monocytic cell line), MV4; 11 (acute myelocytic leukemia).”, “DMEM” for “RPMI”, “4000-10000” for “2000-5000”, “of a” for “of”, “16” for “8”

[10] = test system: MCF7 (breast adenocarcinoma); test: MTT cytotoxicity assay, solid cancer cell line MCF7; assay type: cell-based; details: Homo sapiens, MCF7, 72 h, three days
Description: as §2, with “following” for “following leukemic”, “G361 (malignant melanoma), MCF7 (breast adenocarcinoma), PLC/PRF/5 (liver hepatoma), PANC-1 (pancreatic carcinoma) and HCT116 (colon carcinoma).” for “K562 (human chronic myelogenous leukaemia), HL60 (human promyelocytic leukaemia), CEM (human lymphoblastoid leukaemia), THP1 (human monocytic cell line), MV4; 11 (acute myelocytic leukemia).”, “DMEM” for “RPMI”, “4000-10000” for “2000-5000”, “of a” for “of”, “16” for “8”

T1 sequence (Q00535 whole entry): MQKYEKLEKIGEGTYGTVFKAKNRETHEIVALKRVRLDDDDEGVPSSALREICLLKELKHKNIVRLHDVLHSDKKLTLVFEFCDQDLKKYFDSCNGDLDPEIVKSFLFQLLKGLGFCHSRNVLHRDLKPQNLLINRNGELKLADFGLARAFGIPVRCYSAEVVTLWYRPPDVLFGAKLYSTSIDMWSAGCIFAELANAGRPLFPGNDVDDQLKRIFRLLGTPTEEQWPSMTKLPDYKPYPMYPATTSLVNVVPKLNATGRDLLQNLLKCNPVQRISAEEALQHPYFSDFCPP
T1 sequence (Q15078 whole entry partner): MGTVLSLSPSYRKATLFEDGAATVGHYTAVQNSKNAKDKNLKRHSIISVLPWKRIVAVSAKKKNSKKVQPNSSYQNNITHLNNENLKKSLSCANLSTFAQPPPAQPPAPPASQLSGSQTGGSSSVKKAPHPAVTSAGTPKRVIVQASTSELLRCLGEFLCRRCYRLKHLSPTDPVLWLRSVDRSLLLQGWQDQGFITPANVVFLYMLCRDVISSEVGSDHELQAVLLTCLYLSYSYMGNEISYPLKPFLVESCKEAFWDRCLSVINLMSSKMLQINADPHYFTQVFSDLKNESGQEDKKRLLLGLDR

CC(C)c1n[nH]c2c(NCc3ccc(-c4ccccn4)cc3)nc(NCC(O)CO)nc12 (centres unmarked) [Compound 35]
IC50 ([1]; Homo sapiens, MV4-11, 72 h): 0.2 µM | IC50 ([2]; Homo sapiens, THP-1, 72 h): 0.26 µM | IC50 ([3]; Homo sapiens, 72 h): 0.18 µM | IC50 ([4]; Homo sapiens, K562, 72 h): 0.24 µM | IC50 (CDK5/p35): 0.017 µM | IC50 ([5]; Homo sapiens, HL-60, 72 h): 0.17 µM

CC(C)c1n[nH]c2c(NCc3ccc(-c4ccccn4)cc3)nc(NCCN)nc12 [Compound 40]
IC50 (CDK2/Cyclin E): 0.027 µM | IC50 ([1]; Homo sapiens, MV4-11, 72 h): 0.25 µM | IC50 ([2]; Homo sapiens, THP-1, 72 h): 0.11 µM | IC50 ([3]; Homo sapiens, 72 h): 0.14 µM | IC50 ([4]; Homo sapiens, K562, 72 h): 0.34 µM | IC50 (CDK5/p35): 0.038 µM | IC50 ([5]; Homo sapiens, HL-60, 72 h): 0.22 µM

CC(C)c1n[nH]c2c(NCc3ccc(-c4ccccn4)cc3)nc(NCCCN)nc12 [Compound 41]
IC50 [1]: 0.35 µM | IC50 [2]: 0.27 µM | IC50 [3]: 0.43 µM | IC50 [4]: 0.47 µM | IC50 [5]: 0.56 µM

CCN(CC)CCNc1nc(NCc2ccc(-c3ccccn3)cc2)c2[nH]nc(C(C)C)c2n1 [Compound 50]
IC50 [1]: 0.17 µM | IC50 [2]: 0.08 µM | IC50 [3]: 0.11 µM | IC50 [4]: 0.18 µM | IC50 [5]: 0.14 µM

CC(C)c1[nH]nc2c(NCc3ccc(-c4ccccn4)cc3)nc(NCCN3CCC3)nc12 [Compound 54]
IC50 (CDK2/Cyclin E): 0.322 µM | IC50 ([1]; Homo sapiens, MV4-11, 72 h): 0.24 µM | IC50 ([2]; Homo sapiens, THP-1, 72 h): 0.37 µM | IC50 ([3]; Homo sapiens, 72 h): 0.24 µM | IC50 ([4]; Homo sapiens, K562, 72 h): 0.36 µM | IC50 (CDK5/p35): 0.204 µM | IC50 ([5]; Homo sapiens, HL-60, 72 h): 0.29 µM

CC(C)c1[nH]nc2c(NCc3ccc(-c4ccccn4)cc3)nc(NCCN3CCCC3)nc12 [Compound 55]
IC50 (CDK2/Cyclin E): 0.64 µM | IC50 (CDK5/p35): 0.182 µM

CC(C)c1n[nH]c2c(NCc3ccc(-c4ccccn4)cc3)nc(NCC(C)N3CC3)nc12 (centres unmarked) [Compound 57]
IC50 [1]: 0.53 µM | IC50 [2]: 0.29 µM | IC50 [3]: 0.27 µM | IC50 [4]: 0.44 µM | IC50 [5]: 0.32 µM

CC(C)c1[nH]nc2c(NCc3ccc(-c4ccccn4)cc3)nc(N[C@H]3CC[C@H](N)CC3)nc12 [Compound 67]
IC50 [6]: 0.5 µM | IC50 ([1]; Homo sapiens, MV4-11, 72 h): 0.19 µM | IC50 (HCT116 (colon carcinoma)): 0.37 µM | IC50 ([2]; Homo sapiens, THP-1, 72 h): 0.3 µM | IC50 [7]: 0.36 µM | IC50 ([3]; Homo sapiens, 72 h): 0.23 µM | IC50 ([4]; Homo sapiens, K562, 72 h): 0.59 µM | IC50 (CDK5/p35): 0.179 µM | EC50 ([8]; Homo sapiens, HUVEC): 69 nM | IC50 ([5]; Homo sapiens, HL-60, 72 h): 0.24 µM | IC50 [9]: 0.29 µM | IC50 [10]: 0.47 µM

COc1ccc(CNc2nc(NCc3ccc(-c4ccccn4)cc3)c3n[nH]c(C(C)C)c3n2)cc1 [Compound 73]
IC50 [6]: 0.44 µM | IC50 ([1]; Homo sapiens, MV4-11, 72 h): 0.97 µM | IC50 (HCT116 (colon carcinoma)): 0.99 µM | IC50 ([2]; Homo sapiens, THP-1, 72 h): 0.67 µM | IC50 [7]: 2.62 µM | IC50 ([3]; Homo sapiens, 72 h): 0.89 µM | IC50 ([4]; Homo sapiens, K562, 72 h): 3.95 µM | IC50 (CDK5/p35): 4.42 µM | EC50 ([8]; Homo sapiens, HUVEC): 2280 nM | IC50 ([5]; Homo sapiens, HL-60, 72 h): 0.78 µM | IC50 [9]: 3.94 µM | IC50 [10]: 5.3 µM

CC(C)c1n[nH]c2c(NCc3ccc(-c4ccccn4)cc3)nc(NCc3ccccc3Cl)nc12 [Compound 81]
EC50 [8]: 1330 nM
